Series [1] can be described thus: Protection of galactosamine-sensitized mice from LPS-induced lethality. In kind it is in vivo, C57BL/6J mice. Particulars: 75 μg peptide, 2 ng LPS pre-incubated with peptide 30 minutes. How it is done:
The anti-endotoxin potency of SSCrFCES was investigated in C57BL/6J mice. Mice are typically resistant to endotoxin. However, the sensitivity of mice to endotoxin can be enhanced >1,000-fold by co-injection with a liver-specific inhibitor, galactosamine (31). […] […] Lethality was observed over 3 days after injection. Statistical analysis were performed using the Kaplan-Meier test (32) and log rank pairwise test.

Another series has as its system P. aeruginosa. Nature of the series: Microbicidal concentration (MBC) assay. The series is classed as cell-based, Pseudomonas aeruginosa. Particulars: MBC. As for the experimental part: Test strains cultured on Mueller-Hinton agar (MHA, Becton Dickinson, USA) were inoculated into 10 ml Mueller-Hinton broth (MHB, Becton Dickinson, USA) and grown overnight at 37° C. in a shaker incubator (Model 4536, Forma Scientific, Inc., USA) at 230 rpm. Overnight broth cultures were diluted to give a final cell density of 10^5 colony forming units/ml (cfu/ml). One hundred microliters of the bacterial suspension was dispensed into sterile polypropylene 8-strip PCR-tubes (Quality Scientific Plastics, USA). Eleven microliters of serially diluted sushi peptides, ranging in final concentrations of 0.03-4 μg/ml, were then added. The peptides were constituted at 10 times the required test concentrations in 0.01% acetic acid and 0.2% bovine serum albumin (BSA). Positive controls were cultures without test peptides. Uninoculated MHB was used as negative control. All tests were carried out in triplicate.
Cultures were incubated at 37° C. for 18-24 h, with the PCR-tubes held in horizontal position and shaken at 230 rpm. Cell counts were determined by standard drop-count method. The killing efficiency for the four sushi peptides were calculated based on standard drop-count method.

In a further series the test system is P. aeruginosa ATCC 27853. In words: Killing rate assay. The series is classed as cell-based, Pseudomonas aeruginosa. Conditions: peptides at 0.06 μg/ml, initial 10^9 cfu/ml. An excerpt: The killing rate assay was adapted from the MBC test above, with different contact time of peptides with the bacteria arrested at regular intervals and plated for colony count. An initial density of 10^9 cfu/ml was used. […] This is one of the important features of an effective therapeutic agent.

A further series deals with THP-1 monocytes. How it is done:
Two×10^4 THP-1 monocytes in 50 μl of RPMI 1640 were mixed in a microtitre plate with 50 μl of increasing amount of 2-fold serial dilutions of SSCrFCES (0.004-4.0 mg/ml in PBS) and incubated for 60 min at 37° C. To determine cytotoxicity induced by the SSCrFCES, 20 μl of CellTiter96™ AQueous One Solution Reagent (Promega) was added into each well for 90 min at 37° C. [3-(4,5-dimethylthiazol-2-yl)-5-(3-carboxymethoxyphenyl)-2-(4-sulfophenyl)-2H-tetrazolium (MTS) is bioreduced by metabolically active cells into a colored formazan product that is soluble in tissue culture medium (27, 28). For detection, the absorbance was measured at 490 nm. To determine the ratio of cell lysis induced by SSCrFCES, two controls were used. Complete lysis (100%) was achieved by incubating cells in phosphate buffer saline containing 0.2% Tween-20 instead of medium only. This absorbance value corresponded to the background, as those cells could not metabolize MTS. The second control representing 0% lysis was determined by incubating cells in medium only. […] The experiment was done in triplicate.

A further series deals with Human erythrocytes. Nature of the series: Hemolysis assay, human erythrocytes. Conditions: 100 μg/ml. The series is classed as cell-based. As for the experimental part:
Human and rabbit erythrocytes were both used to test the hemolytic activities of the peptides. Whole blood was collected in heparinized sterile syringe, transferred to sterile borosilicate tube and centrifuged at 1200 g for 5 minutes at 4° C. The supernatant including the leukocytes above the erythrocyte pellet was discarded. The erythrocytes were washed 3 times using three volumes of prechilled pyrogen-free saline (PFS). An erythrocyte suspension at 0.4% was prepared for the hemolysis assay. Serial two-fold dilutions of the peptides was prepared in PFS and 100 μl aliquots were added to equal volumes of 0.4% erythrocyte solution in a 96-well microtiter plate (Nunclon™ Δ surface, Nunc) to give final peptide concentrations ranging from 6 to 100 μg/ml. The mixtures were incubated at 37° C. for 1 h. The intact erythrocytes were then pelleted by centrifuging at 1000 g for 5 min. One hundred μl of the supernatant was transferred to a new 96-well microtiter plate and the amount of hemoglobin released into the supernatant was determined by reading the absorbance at 414 nm using a SPECTRAmax™ 340 plate reader with SOFTmax PRO™ version 1.2.0. A positive control with 100 μl of 0.4% erythrocyte lysed in 1% Triton-X 100 was taken as 100% lysis. The negative control was the erythrocytes in PFS alone, which gave minimal lysis. This was taken as 0%.

A further series concerns Escherichia coli. Conditions: time-kill kinetics tested on Escherichia coli; cited from earlier work.
Series [2] can be described thus: Modified Western blot LPS-binding assay of rFC. More on the design: species or system E. coli. Conditions: 300 μg protein per LPS/lipid A strip. How it is done: LPS from E. coli 055:B5 (Sigma) was reconstituted to 2 μg/μl, and diphosphoryl lipid A from E. coli K12, D31m4 LPS (List Biologicals, Inc., USA) was made up to 1 μg/μl. The LPS-binding assay was based on modifications of earlier described protocols (45,61). Briefly, 10 μg aliquots of LPS/lipid A were electrophoresed on a denaturing 15% SDS-polyacrylamide gel and electroblotted onto Immobilon™ PVDF membrane. The membrane was cut into strips and each LPS/lipid A strip was subsequently incubated with 300 μg of proteins containing rFC. Detection of rFC binding to lipid A was accomplished by incubation with anti-Factor C antibody followed by alkaline phosphatase-conjugated secondary goat anti-rabbit antibody (Dako) and BCIP/NBT colorimetric substrate (Moss, Inc., USA).
On the technique in general: A western blot detects proteins with antibodies after separation by electrophoresis.

The nature of series [3]: Competition between rFC and CAL Factor C for LPS (fluorimetric assay). The series is classed as biochemical. Particulars: Biomax-50 enriched, 100 μg. As for the experimental part: Carcinoscorpius amoebocyte lysate (CAL) containing native Factor C was used in an assay in which rFC competed with CAL Factor C for LPS. Because the rFC produced in P. pastoris lacks serine protease activity, the competition can be monitored by measuring the reduced enzymatic activity of CAL in a fluorimetric assay. Mixtures of 100 μl each of increasing concentrations of LPS or rFC, in fluorimetric assay buffer (50 mM Tris HCl pH 8, containing 0.1 M NaCl and 0.01 M CaCl2) were incubated at 37° C. for 1 h. Aliquots of 20 μg CAL were added to each mixture and the total volumes were made up to 2 ml with fluorimetric assay buffer. The reaction was continued at 37° C. for 1 h and the fluorimetric assay protocol (64) was followed. This involved the addition of 15 μl of 2 mM fluorimetric substrate N-t-Boc-Val-Pro-Arg-7-amido-4-methylcoumarin (Sigma) and incubation at 37° C. for 30 min. The reaction was terminated by the addition of 0.1 ml of glacial acetic acid (Merck). The product, amino methylcoumarin, was measured in fluorescence units (FU) on a Luminescence Spectrometer LS-5 (Perkin-Elmer) with excitation light at 380 nm and emission at 460 nm.
The percentage competition by rFC of the native Factor C enzyme activity of CAL was calculated based on comparison of enzyme activity with the negative control of pHILD2/151. […]
[formula] where FU represents fluorescence units.

Series [4] relates to Escherichia coli ATCC#25922. Nature of the series: Bacteriostatic activity in in vitro culture, E. coli. The series is classed as cell-based. Conditions: within 2 h of incubation. How it is done: (§1) The bacteria used for the assay were Escherichia coli ATCC#25922, Salmonella typhimurium ATCC#14028, Pseudomonas aeruginosa ATCC#27853, Klebsiella pneumoniae ATCC#13883 and […]. A colony of each Gram-negative bacterium was inoculated into nutrient broth (Gibco, BRL) and grown at 37° C. until it reached the logarithmic phase of growth. The culture was diluted with nutrient broth to give 1-5×10^5 cells/ml. Aliquots of 2 ml culture were incubated with 1 mg rFC/ml of culture. Incubation was carried out at 37° C. At time intervals of 0, 2, 4, 6, and 24 h, the bacterial culture was vortexed to break up any agglutinated clumps. After vortexing, each culture was examined under the microscope to ensure homogeneity of bacteria. The culture was serially diluted with 0.85% saline, plated on nutrient agar (Oxoid) and incubated overnight at 37° C. for colony counting.

The subject of series [5] is the various bacteria used. In words: Bacteriostatic activity in in vitro cultures, the various bacteria used. In kind it is cell-based. Particulars: crude full-length rFC; Sephadex G-100 enriched truncates. How it is done: as §1

Marks after values point to notes of the source that are not given here. Ends that are not written are not given here. Peptide text beside a SMILES is read from it.

With `CC[C@H](C)[C@H](NC(=O)[C@H](CCCNC(=N)N)NC(=O)[C@H](C)NC(=O)[C@H](CCSC)NC(=O)CNC(=O)[C@H](CCCCN)NC(=O)[C@H](CC(C)C)NC(=O)[C@H](CCCCN)NC(=O)[C@H](Cc1ccccc1)NC(=O)CN)C(=O)N[C@@H](CO)C(=O)N[C@@H](CS)C(=O)N[C@@H](CC(C)C)C(=O)N1CCC[C@H]1C(=O)N[C@@H](CC(N)=O)C(=O)NCC(=O)N[C@@H](CCC(N)=O)C(=O)N[C@@H](Cc1c[nH]c2ccccc12)C(=O)N[C@@H](CO)C(=O)N[C@@H](CC(N)=O)C(=O)N[C@@H](Cc1ccccc1)C(=O)N1CCC[C@H]1C(=O)N1CCC[C@H]1C(=O)N[C@@H](CCCCN)C(=O)N[C@@H](CS)C(=O)N[C@H](C(=O)N[C@@H](CCCNC(=N)N)C(=O)N[C@@H](CCC(=O)O)C(=O)N[C@@H](CS)C(=O)N[C@@H](C)C(=O)N[C@@H](CCSC)C(=O)N[C@H](C(=O)N[C@@H](CO)C(=O)N[C@@H](CO)C(=O)O)C(C)C)[C@@H](C)CC` [S1] (H-GFKLKGMARISCLPNGQWSNFPPKCIRECAMVSS-OH; N-terminus and C-terminus assumed), the “Mouse Protection Assay” value in series [1] came to 22% at 75. For the same molecule, the “Anti-microbial Potency P. aeruginosa MBC90” value in the series on P. aeruginosa worked out at 0.03 µg/mL. For the same molecule, the “Killing rate (time to achieve MBC90)” value with P. aeruginosa ATCC 27853 is 7 min.

For GVSTTVLNIYRGIINLLQLNVKK [S8-vg3], the “Cytotoxicity (Cell lysis) BC50” value with THP-1 monocytes amounted to 22 µM. The “Haemolytic Activity at 100 μg/ml peptide (hu RBC) % lysis” value (“Haemolytic Activity … (hu RBC) % lysis” below) in the series on Human erythrocytes turned out to be 100%.

Regarding HAEHKVKIGVEQKYGQFPQGTEVTYTCSGNYFLM [S3], the “Haemolytic Activity … (hu RBC) % lysis” value in the series on Human erythrocytes turned out to be 5%.

For HKVKKIVKQLYRAEHKVKKIVKQL [S5], the “Cytotoxicity (Cell lysis) BC50” value in the series with THP-1 monocytes came to 33 µM. Also, the “Haemolytic Activity … (hu RBC) % lysis” value in the series with Human erythrocytes was determined as 0%.

As for IYRGIINLIQLAVKKAQNVYQM [S9-vg4], the “Cytotoxicity (Cell lysis) BC50” value in the series with THP-1 monocytes stood at 35 µM. Also, the “Haemolytic Activity … (hu RBC) % lysis” value in the series on Human erythrocytes was 75%.

Take LLNAVPHKATHAALKFLKEK [S7-vg2]: in the series on THP-1 monocytes, the “Cytotoxicity (Cell lysis) BC50” value was found to be 400 µM. The “Haemolytic Activity … (hu RBC) % lysis” value with Human erythrocytes is 5%.

Turning to MRKLVLALAKALAKVDKKNL [S6-vg1], the “Cytotoxicity (Cell lysis) BC50” value in the series on THP-1 monocytes turned out to be 26 µM. The “Haemolytic Activity … (hu RBC) % lysis” value in the series with Human erythrocytes stood at 5%.

Turning to Magainin II, in the series with Escherichia coli, the Killing rate is recorded as 60^d min.

Nisin: in the series on Escherichia coli, the Killing rate is listed as 60^d min.

With RAEHKVKKIVKQLYGQFRQLTRVTRTCSRFLRRM [S4], the “Cytotoxicity (Cell lysis) BC50” value with THP-1 monocytes was 3.8 µM. Besides, the “Haemolytic Activity … (hu RBC) % lysis” value with Human erythrocytes was determined as 20%.

On to Ranalexin, for which the Killing rate in the series on Escherichia coli is listed as >60^d min.

B1: rFCEE: truncated recombinant Factor C from pHILD2/CrFC21EE, amino acids 1-766, 90 kDa, with endotoxin-binding domain (protein, listed as Carcinoscorpius rotundicauda)
chain: MVLASFLVSGLVLGLLAQKMRPVQSKGVDLGLCDETRFECKCGDPGYVFNIPVKQCTYFYRWRPYCKPCDDLEAKDICPKYKRCQECKAGLDSCVTCPPNKYGTWCSGECQCKNGGICDQRTGACACRDRYEGVHCEILKGCPLLPSDSQVQEVRNPPDNPQTIDYSCSPGFKLKGMARISCLPNGQWSNFPPKCIRECAMVSSPEHGKVNALSGDMIEGATLRFSCDSPYYLIGQETLTCQGNGQWNGQIPQCKNLVFCPDLDPVNHAEHKVKIGVEQKYGQFPQGTEVTYTCSGNYFLMGFDTLKCNPDGSWSGSQPSCVKVADREVDCDSKAVDFLDDVGEPVRIHCPAGCSLTAGTVWGTAIYHELSSVCRAAIHAGKLPNSGGAVHVVNNGPYSDFLGSDLNGIKSEELKSLARSFRFDYVRSSTAGKSGCPDGWFEVDENCVYVTSKQRAWERAQGVCTNMAARLAVLDKDVIPNSLTETLRGKGLTTTWIGLHRLDAEKPFIWELMDRSNVVLNDNLTFWASGEPGNETNCVYMDIQDQLQSVWKTKSCFQPSSFACMMDLSDRNKAKCDDPGSLENGHATLHGQSIDGFYAGSSIRYSCEVLHYLSGTETVTCTTNGTWSAPKPRCIKVITCQNPPVPSYGSVEIKPPSRTNSISRVGSPFLRLPRLPLPLARAAKPPPKPRSSQPSTVDLASKVKLPEGHYRVGSRAIYTCESRYYELLGSQGRRCDSNGNWSGRPASCIPVCGRSDSPRSPFIWNG
For B1, the “binding to 7-20 kDa lipid A bands” value in series [2] is “able to bind specifically to lipid A moiety of LPS, albeit less strongly”. In addition, the “effect on the enzymatic activity of CAL Factor C” value in series [3] was “markedly lower competitive effect”. Also, the “agglutination of E. coli” value in series [4] is listed as “Agglutination”. Further, the “inhibitory effect on growth of the various bacteria” value in series [5] is “did not have any inhibitory effect”.

(Values after patent publication US7297551B2, “Recombinant proteins and peptides for endotoxin biosensors, endotoxin removal, and anti-microbial and anti-endotoxin therapeutics” (priority 1998, dated 2007).)
